Laboratory results taken from US12630547B2, “RAS protein degraders, pharmaceutical compositions thereof, and their therapeutic applications” (BioTheryX, Inc., priority 2019, dated 2026).

test system: MOLM-13 cells; assay: Cell viability assay (CELLTITER-GLO), MOLM-13 cells; type: cell-based; settings: Homo sapiens, MOLM-13, 72 h; Table 2; compound at 10 μM, 3 days; read-out: Effect on MOLM-13 cell viability (% DMSO)
Method: MOLM-13 cells, MV-4-11 cells, H23, and H358 cells were independently cultured in RPMI 1640 media supplemented with 10% fetal bovine serum, streptomycin and penicillin. The cells were plated in white walled 96-well plates at 4,000 cells/well. The cells were incubated in DMSO (control) or a compound for 3 days at 37° C. under 5% CO2. A CELLTITER-GLO® reagent (100 μL) was then added to each well. After a 10 min incubation with shaking, luminescence was measured using an ENVISION® multimode plate reader.
In Tables 1 and 2, each compound was tested at 10 μM; and in Table 3, each compound was tested at 1 μM. In Tables 1 to 3, the cell viability values as % DMSO are reported as “A,” “B,” “C,” or “D;” where “A” represents a % viability value of less than 10%; “B” represents a % viability value of no less than 10% and less than 25%; “C” represents a % viability value of no less than 25% and less than 50%; and “D” represents a % viability value of no less than 50%. Compound A is […]

| Structure (SMILES) | viability at 10 µM [%] |
| --- | --- |
| C=CC(=O)N1CC(N2Cc3ccc(-c4cc(O)cc5ccccc45)cc3N(CCOCCOCCC(=O)NCCOc3cccc4c3C(=O)N(C3CCC(=O)NC3=O)C4=O)C2=O)C1 (centres unmarked) [Compound 11, 3-(2-(2-(3-(1-Acryloylazetidin-3-yl)-7-(3-hydroxynaphthalen-1-yl)-2-oxo-3,4-dihydroquinazolin-1(2H)-yl)ethoxy)ethoxy)-N-(2-((2-(2,6-dioxopiperidin-3-yl)-1,3-dioxoisoindolin-4-yl)oxy)ethyl)propanamide] | ≥ 50 |
| CCC(=O)N1CC(N2Cc3ccc(-c4cc(O)cc5ccccc45)cc3N(CCOCCOCCOCCNc3cccc4c3C(=O)N(C3CCC(=O)NC3=O)C4=O)C2=O)C1 (centres unmarked) [Compound 12, 2-(2,6-Dioxopiperidin-3-yl)-4-((2-(2-(2-(2-(7-(3-hydroxynaphthalen-1-yl)-2-oxo-3-(1-propionylazetidin-3-yl)-3,4-dihydroquinazolin-1(2H)-yl)ethoxy)ethoxy)ethoxy)ethyl)amino)-isoindoline-1,3-dione] | ≥ 50 |
| C=CC(=O)N1CCN(c2ncnc3c(F)c(-c4c(O)cccc4F)c(Cl)cc23)C(CC(=O)NCCCCCNC(=O)NCc2cc3c(s2)C(=O)N(C2CCC(=O)NC2=O)C3)C1 (centres unmarked) [Compound 13, 2-(4-Acryloyl-1-(6-chloro-8-fluoro-7-(2-fluoro-6-hydroxyphenyl)quinazolin-4-yl)piperazin-2-yl)-N-(5-(3-((5-(2,6-dioxopiperidin-3-yl)-6-oxo-5,6-dihydro-4H-thieno[2,3-c]pyrrol-2-yl)methyl)ureido)pentyl)acetamide] | ≥ 50 |
| C=CC(=O)N1CC(c2nc3ccc(-c4cc(O)cc5ccccc45)cc3c(=O)n2CCOCCOCCNCc2ccc(OCc3scc4c3CN([C@H]3CCC(=O)NC3=O)C4=O)cc2)C1 [Compound 14, (S)-3-(1-((4-(((2-(2-(2-(2-(1-Acryloylazetidin-3-yl)-6-(3-hydroxynaphthalen-1-yl)-4-oxoquinazolin-3(4H)-yl)ethoxy)ethoxy)ethyl)amino)methyl)phenoxy)methyl)-4-oxo-4H-thieno[3,4-c]pyrrol-5(6H)-yl)piperidine-2,6-dione] | ≥ 50 |
| C=CC(=O)N1CC(c2nc3ccc(-c4cc(O)cc5ccccc45)cc3c(=O)n2CCNCc2ccc(OCc3scc4c3CN([C@H]3CCC(=O)NC3=O)C4=O)cc2)C1 [Compound 15, (S)-3-(1-((4-(((2-(2-(1-Acryloylazetidin-3-yl)-6-(3-hydroxynaphthalen-1-yl)-4-oxoquinazolin-3(4H)-yl)ethyl)amino)methyl)phenoxy)methyl)-4-oxo-4H-thieno[3,4-c]pyrrol-5(6H)-yl)piperidine-2,6-dione] | ≥ 50 |
| C=CC(=O)N1CC(N2Cc3ccc(-c4cc(O)cc5ccccc45)cc3N(CCCCNCc3ccc(OCc4scc5c4CN([C@H]4CCC(=O)NC4=O)C5=O)cc3)C2=O)C1 [Compound 16, (S)-3-(1-((4-(((4-(3-(1-Acryloylazetidin-3-yl)-7-(3-hydroxynaphthalen-1-yl)-2-oxo-3,4-dihydroquinazolin-1(2H)-yl)butyl)amino)methyl)phenoxy)methyl)-4-oxo-4H-thieno[3,4-c]pyrrol-5(6H)-yl)piperidine-2,6-dione] | ≥ 50 |

same assay, conditions: Homo sapiens, MOLM-13, 72 h; Table 3; compound at 1 μM, 3 days; read-out: Effect on MOLM-13 cell viability (% DMSO)

| Structure (SMILES) | viability at 1 µM [%] |
| --- | --- |
| C=CC(=O)N1CCN(c2ncnc3c(F)c(-c4c(F)cccc4OCCOCCOCCC(=O)NCCOc4cccc5c4C(=O)N(C4CCC(=O)NC4=O)C5=O)c(Cl)cc23)CC1 (centres unmarked) [Compound 3, 3-(2-(2-(2-(4-(4-Acryloylpiperazin-1-yl)-6-chloro-8-fluoroquinazolin-7-yl)-3-fluorophenoxy)ethoxy)ethoxy)-N-(2-((2-(2,6-dioxopiperidin-3-yl)-1,3-dioxoisoindolin-4-yl)oxy)ethyl)propanamide] | ≥ 50 |
| CCC(=O)N1CC(N2Cc3ccc(-c4cc(O)cc5ccccc45)cc3N(CCNCc3ccc(OCc4scc5c4CN(C4CCC(=O)NC4=O)C5=O)cc3)C2=O)C1 (centres unmarked) [Compound 4, 3-(1-((4-(((2-(7-(3-Hydroxynaphthalen-1-yl)-2-oxo-3-(1-propionylazetidin-3-yl)-3,4-dihydroquinazolin-1(2H)-yl)ethyl)amino)methyl)phenoxy)methyl)-4-oxo-4H-thieno[3,4-c]pyrrol-5(6H)-yl)piperidine-2,6-dione] | 10 to 25 |
| CCC(=O)N1CC(N2Cc3ccc(-c4cc(O)cc5ccccc45)cc3N(CCOCCNCc3ccc(OCc4scc5c4CN(C4CCC(=O)NC4=O)C5=O)cc3)C2=O)C1 (centres unmarked) [Compound 5, 3-(1-((4-(((2-(2-(7-(3-Hydroxynaphthalen-1-yl)-2-oxo-3-(1-propionylazetidin-3-yl)-3,4-dihydroquinazolin-1(2H)-yl)ethoxy)ethyl)amino)methyl)phenoxy)methyl)-4-oxo-4H-thieno[3,4-c]pyrrol-5(6H)-yl)piperidine-2,6-dione] | ≥ 50 |
| CCC(=O)N1CCN(c2ncnc3c(F)c(-c4c(F)cccc4OCCOCCOCCC(=O)NCCNc4cccc5c4C(=O)N(C4CCC(=O)NC4=O)C5=O)c(Cl)cc23)CC1 (centres unmarked) [Compound 6, 3-(2-(2-(2-(6-Chloro-8-fluoro-4-(4-propionylpiperazin-1-yl)quinazolin-7-yl)-3-fluorophenoxy)ethoxy)ethoxy)-N-(2-((2-(2,6-dioxopiperidin-3-yl)-1,3-dioxoisoindolin-4-yl)amino)ethyl)propanamide] | ≥ 50 |
| CCC(=O)N1CC(N2Cc3ccc(-c4cc(O)cc5ccccc45)cc3N(CCOCCOCCC(=O)NCCOc3cccc4c3C(=O)N(C3CCC(=O)NC3=O)C4=O)C2=O)C1 (centres unmarked) [Compound 7, N-(2-((2-(2,6-Dioxopiperidin-3-yl)-1,3-dioxoisoindolin-4-yl)oxy)ethyl)-3-(2-(2-(7-(3-hydroxynaphthalen-1-yl)-2-oxo-3-(1-propionylazetidin-3-yl)-3,4-dihydroquinazolin-1(2H)-yl)ethoxy)ethoxy)propanamide] | ≥ 50 |
| CCC(=O)N1CCN(c2ncnc3c(F)c(-c4c(F)cccc4OCCOCCOCCC(=O)NCCOc4cccc5c4C(=O)N(C4CCC(=O)NC4=O)C5=O)c(Cl)cc23)CC1 (centres unmarked) [Compound 8, 3-(2-(2-(2-(6-Chloro-8-fluoro-4-(4-propionylpiperazin-1-yl)quinazolin-7-yl)-3-fluorophenoxy)ethoxy)ethoxy)-N-(2-((2-(2,6-dioxopiperidin-3-yl)-1,3-dioxoisoindolin-4-yl)oxy)ethyl)propanamide] | ≥ 50 |
| CCC(=O)N1CCN(c2ncnc3c(F)c(-c4c(F)cccc4OCCOCCOCCOCCNc4cccc5c4C(=O)N(C4CCC(=O)NC4=O)C5=O)c(Cl)cc23)CC1 (centres unmarked) [Compound 9, 4-((2-(2-(2-(2-(2-(6-Chloro-8-fluoro-4-(4-propionylpiperazin-1-yl)quinazolin-7-yl)-3-fluorophenoxy)ethoxy)ethoxy)ethoxy)ethyl)amino)-2-(2,6-dioxopiperidin-3-yl)isoindoline-1,3-dione] | ≥ 50 |
| C=CC(=O)N1CC(N2Cc3ccc(-c4cc(O)cc5ccccc45)cc3N(CCOCCC(=O)NCCOc3cccc4c3C(=O)N(C3CCC(=O)NC3=O)C4=O)C2=O)C1 (centres unmarked) [Compound 10, 3-(2-(3-(1-Acryloylazetidin-3-yl)-7-(3-hydroxynaphthalen-1-yl)-2-oxo-3,4-dihydroquinazolin-1(2H)-yl)ethoxy)-N-(2-((2-(2,6-dioxopiperidin-3-yl)-1,3-dioxoisoindolin-4-yl)oxy)ethyl)propanamide] | ≥ 50 |
